Experimental data from ChEMBL document CHEMBL4715697, “Synthesis and biological activity of benzamide DNA minor groove binders” (2016).

Assays:
Assay type in all cases: functional
[1] = tested on: TK-10; assay: Growth inhibition of human TK-10 cells assessed as cell growth at 0.01 uM incubated for 48 hrs by sulforhodamine B assay relative to control; conditions: read-out: Activity
[2] = tested on: 786-0; assay: Growth inhibition of human 786-0 cells incubated for 48 hrs by sulforhodamine B assay
[3] = tested on: A549; assay: Growth inhibition of human A549/ATCC cells assessed as cell growth at 100 uM incubated for 48 hrs by sulforhodamine B assay relative to control; conditions: read-out: Activity
[4] = tested on: HCT-116; assay: Growth inhibition of human HCT-116 cells incubated for 48 hrs by sulforhodamine B assay
[5] = tested on: SK-OV-3; assay: Growth inhibition of human SK-OV-3 cells assessed as cell growth at 1 uM incubated for 48 hrs by sulforhodamine B assay relative to control; conditions: read-out: Activity
[6] = tested on: KM12; assay: Growth inhibition of human KM12 cells assessed as cell growth at 1 uM incubated for 48 hrs by sulforhodamine B assay relative to control; conditions: read-out: Activity
[7] = tested on: SK-MEL-5; assay: Growth inhibition of human SK-MEL-5 cells assessed as cell growth at 1 uM incubated for 48 hrs by sulforhodamine B assay relative to control; conditions: read-out: Activity
[8] = tested on: SW-620; assay: Growth inhibition of human SW-620 cells assessed as cell growth at 0.01 uM incubated for 48 hrs by sulforhodamine B assay relative to control; conditions: read-out: Activity
[9] = tested on: K562; assay: Growth inhibition of human K562 cells assessed as cell growth at 1 uM incubated for 48 hrs by sulforhodamine B assay relative to control; conditions: read-out: Activity
[10] = tested on: Malme-3M; assay: Growth inhibition of human Malme-3M cells assessed as cell growth at 100 uM incubated for 48 hrs by sulforhodamine B assay relative to control; conditions: read-out: Activity
[11] = tested on: SNB-75; assay: Growth inhibition of human SNB-75 cells incubated for 48 hrs by sulforhodamine B assay
[12] = tested on: A498; assay: Growth inhibition of human A498 cells assessed as cell growth at 1 uM incubated for 48 hrs by sulforhodamine B assay relative to control; conditions: read-out: Activity
[13] = tested on: PC-3; assay: Growth inhibition of human PC-3 cells assessed as cell growth at 1 uM incubated for 48 hrs by sulforhodamine B assay relative to control; conditions: read-out: Activity
[14] = tested on: OVCAR-4; assay: Growth inhibition of human OVCAR-4 cells assessed as cell growth at 0.01 uM incubated for 48 hrs by sulforhodamine B assay relative to control; conditions: read-out: Activity
[15] = tested on: Malme-3M; assay: Growth inhibition of human Malme-3M cells assessed as cell growth at 1 uM incubated for 48 hrs by sulforhodamine B assay relative to control; conditions: read-out: Activity
[16] = tested on: HOP-62; assay: Growth inhibition of human HOP-62 cells assessed as cell growth at 0.01 uM incubated for 48 hrs by sulforhodamine B assay relative to control; conditions: read-out: Activity
[17] = tested on: A498; assay: Growth inhibition of human A498 cells incubated for 48 hrs by sulforhodamine B assay
[18] = tested on: K562; assay: Growth inhibition of human K562 cells assessed as cell growth at 100 uM incubated for 48 hrs by sulforhodamine B assay relative to control; conditions: read-out: Activity
[19] = tested on: HOP-62; assay: Growth inhibition of human HOP-62 cells incubated for 48 hrs by sulforhodamine B assay
[20] = tested on: UACC-62; assay: Growth inhibition of human UACC-62 cells incubated for 48 hrs by sulforhodamine B assay
[21] = tested on: SW-620; assay: Growth inhibition of human SW-620 cells incubated for 48 hrs by sulforhodamine B assay
[22] = tested on: NCI-H322M; assay: Growth inhibition of human NCI-H322M cells assessed as cell growth at 1 uM incubated for 48 hrs by sulforhodamine B assay relative to control; conditions: read-out: Activity
[23] = tested on: DU-145; assay: Growth inhibition of human DU-145 cells assessed as cell growth at 1 uM incubated for 48 hrs by sulforhodamine B assay relative to control; conditions: read-out: Activity
[24] = tested on: NCI/ADR-RES; assay: Growth inhibition of human NCI/ADR-RES cells assessed as cell growth at 100 uM incubated for 48 hrs by sulforhodamine B assay relative to control; conditions: read-out: Activity
[25] = tested on: UO-31; assay: Growth inhibition of human UO-31 cells assessed as cell growth at 0.1 uM incubated for 48 hrs by sulforhodamine B assay relative to control; conditions: read-out: Activity
[26] = tested on: SN12C; assay: Growth inhibition of human SN12C cells assessed as cell growth at 100 uM incubated for 48 hrs by sulforhodamine B assay relative to control; conditions: read-out: Activity
[27] = tested on: UACC-62; assay: Growth inhibition of human UACC-62 cells assessed as cell growth at 100 uM incubated for 48 hrs by sulforhodamine B assay relative to control; conditions: read-out: Activity
[28] = tested on: RPMI-8226; assay: Growth inhibition of human RPMI-8226 cells assessed as cell growth at 100 uM incubated for 48 hrs by sulforhodamine B assay relative to control; conditions: read-out: Activity
[29] = tested on: KM12; assay: Growth inhibition of human KM12 cells assessed as cell growth at 100 uM incubated for 48 hrs by sulforhodamine B assay relative to control; conditions: read-out: Activity
[30] = tested on: SF-268; assay: Growth inhibition of human SF-268 cells assessed as cell growth at 0.01 uM incubated for 48 hrs by sulforhodamine B assay relative to control; conditions: read-out: Activity
[31] = tested on: SNB-75; assay: Growth inhibition of human SNB-75 cells assessed as cell growth at 1 uM incubated for 48 hrs by sulforhodamine B assay relative to control; conditions: read-out: Activity
[32] = tested on: RPMI-8226; assay: Growth inhibition of human RPMI-8226 cells assessed as cell growth at 0.01 uM incubated for 48 hrs by sulforhodamine B assay relative to control; conditions: read-out: Activity
[33] = tested on: TK-10; assay: Growth inhibition of human TK-10 cells assessed as cell growth at 0.1 uM incubated for 48 hrs by sulforhodamine B assay relative to control; conditions: read-out: Activity
[34] = tested on: Hs-578T; assay: Growth inhibition of human Hs-578T cells assessed as cell growth at 0.1 uM incubated for 48 hrs by sulforhodamine B assay relative to control; conditions: read-out: Activity
[35] = tested on: DU-145; assay: Growth inhibition of human DU-145 cells assessed as cell growth at 0.01 uM incubated for 48 hrs by sulforhodamine B assay relative to control; conditions: read-out: Activity
[36] = read-out: LC50 (the source's name)
[37] = read-out: pLC50 (the source's name) (converted)

Work on `CC(=O)Nc1cc(CCl)cc(NC(=O)c2ccc(C(=O)Nc3cccc(NC(=O)CCCN(C)C)c3)cc2)c1` yielded a growth at 0.01 µM [1] of 99%, a GI50 ([2]; read-out: GI50) greater than 100 µM and an LC50 ([2]; read-out: LC50) greater than 100 µM. It also gave a TGI ([2]; read-out: TGI) greater than 100 µM, a GI50 ([2]; read-out: pGI50 (converted)) greater than 100 µM and an LC50 ([2]; read-out: pLC50 (converted)) greater than 100 µM. For the same compound, the TGI ([2]; read-out: pTGI) was greater than 100 µM, the growth at 100 µM [3] was 88% and the GI50 ([4]; read-out: GI50) was greater than 100 µM. For the same compound, the CC50 [4, 36] was greater than 100 µM, the TGI ([4]; read-out: TGI) was greater than 100 µM and the GI50 ([4]; read-out: pGI50 (converted)) was greater than 100 µM. For the same compound, the CC50 [4, 37] was greater than 100 µM, the TGI ([4]; read-out: pTGI) was greater than 100 µM and the growth at 1 µM [5] was 106%. It also gave a growth at 1 µM [6] of 107%, a growth at 1 µM [7] of 93% and a growth at 0.01 µM [8] of 106%. The growth at 1 µM [9] was 96%, the growth at 100 µM [10] was 80% and the GI50 ([11]; read-out: GI50) was greater than 100 µM. It also gave an LC50 ([11]; read-out: LC50) greater than 100 µM, a TGI ([11]; read-out: TGI) greater than 100 µM and a GI50 ([11]; read-out: pGI50 (converted)) greater than 100 µM. For the same compound, the LC50 ([11]; read-out: pLC50 (converted)) was greater than 100 µM, the TGI ([11]; read-out: pTGI) was greater than 100 µM and the growth at 1 µM [12] was 73%. It also gave a growth at 1 µM [13] of 103%, a growth at 0.01 µM [14] of 99% and a growth at 1 µM [15] of 97%. For the same compound, the growth at 0.01 µM [16] was 101%, the GI50 ([17]; read-out: GI50) was greater than 100 µM and the LC50 (concentration giving 50% net cell kill) ([17]; read-out: LC50) was greater than 100 µM. The TGI ([17]; read-out: TGI) was greater than 100 µM, the GI50 ([17]; read-out: pGI50 (converted)) was greater than 100 µM and the LC50 (concentration giving 50% net cell kill) ([17]; read-out: pLC50 (converted)) was greater than 100 µM. For the same compound, the TGI ([17]; read-out: pTGI) was greater than 100 µM, the growth at 100 µM [18] was 106% and the GI50 ([19]; read-out: GI50) was greater than 100 µM. The CC50 [19, 36] was greater than 100 µM, the TGI ([19]; read-out: TGI) was greater than 100 µM and the GI50 ([19]; read-out: pGI50 (converted)) was greater than 100 µM. The CC50 [19, 37] was greater than 100 µM, the TGI ([19]; read-out: pTGI) was greater than 100 µM and the GI50 ([20]; read-out: GI50) was greater than 100 µM. It also gave a CC50 [20, 36] greater than 100 µM, a TGI ([20]; read-out: TGI) greater than 100 µM and a GI50 ([20]; read-out: pGI50 (converted)) greater than 100 µM. For the same compound, the CC50 [20, 37] was greater than 100 µM, the TGI ([20]; read-out: pTGI) was greater than 100 µM and the GI50 ([21]; read-out: GI50) was greater than 100 µM. It also gave an LC50 ([21]; read-out: LC50) greater than 100 µM, a TGI ([21]; read-out: TGI) greater than 100 µM and a GI50 ([21]; read-out: pGI50 (converted)) greater than 100 µM. For the same compound, the LC50 ([21]; read-out: pLC50 (converted)) was greater than 100 µM, the TGI ([21]; read-out: pTGI) was greater than 100 µM and the growth at 1 µM [22] was 100%. The growth at 1 µM [23] was 106%, the growth at 100 µM [24] was 85% and the growth at 0.1 µM [25] was 97%. It also gave a growth at 100 µM [26] of 102%, a growth at 100 µM [27] of 84% and a growth at 100 µM [28] of 107%. For the same compound, the growth at 100 µM [29] was 88%, the growth at 0.01 µM [30] was 100% and the growth at 1 µM [31] was 78%. For the same compound, the growth at 0.01 µM [32] was 110%, the growth at 0.1 µM [33] was 106% and the growth at 0.1 µM [34] was 116%. For the same compound, the growth at 0.01 µM [35] was 106%.
